Results taken from PubChem BioAssay (NCI).
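Step 1: Grow cells in 96-well plates. Step 2: Expose to compound for 48 hours at 5 concentrations. Step 3: Interpolate endpoints linearly; if unreached, use highest concentration. The concentration for full growth arrest is given as TGI.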

How the values were obtained:
Experiment in all cases: NCI-60 cell line screen, 48 h
COLO 205 colon = tested on: COLO 205 colon
HCT-15 colon = tested on: HCT-15 colon
RXF 393 renal = tested on: RXF 393 renal
NCI/ADR-RES ovarian = tested on: NCI/ADR-RES ovarian
NCI-H460 lung = tested on: NCI-H460 lung
SK-MEL-2 melanoma = tested on: SK-MEL-2 melanoma
LOX IMVI melanoma = tested on: LOX IMVI melanoma
TK-10 renal = tested on: TK-10 renal
U251 CNS = tested on: U251 CNS
SK-MEL-28 melanoma = tested on: SK-MEL-28 melanoma
IGROV1 ovarian = tested on: IGROV1 ovarian
BT-549 breast = tested on: BT-549 breast
SK-MEL-5 melanoma = tested on: SK-MEL-5 melanoma
HL-60(TB) leukemia = tested on: HL-60(TB) leukemia
M14 melanoma = tested on: M14 melanoma

Compound	TGI (COLO 205 colon) [µM]	TGI (HCT-15 colon) [µM]	TGI (RXF 393 renal) [µM]	TGI (NCI/ADR-RES ovarian) [µM]	TGI (NCI-H460 lung) [µM]	TGI (SK-MEL-2 melanoma) [µM]	TGI (LOX IMVI melanoma) [µM]	TGI (TK-10 renal) [µM]	TGI (U251 CNS) [µM]	TGI (SK-MEL-28 melanoma) [µM]	TGI (IGROV1 ovarian) [µM]	TGI (BT-549 breast) [µM]	TGI (SK-MEL-5 melanoma) [µM]	TGI (HL-60(TB) leukemia) [µM]	TGI (M14 melanoma) [µM]
O=C(O[C@@H](/C=C/c1ccccc1)P1(=O)N(Cc2ccccc2)[C@H]2CCCC[C@@H]2N1Cc1ccccc1)c1ccccc1	3.17	> 100	7.85	> 100	5.26	3.98	14	37	11.1	> 100	> 100	> 100	3.67	7.66	> 100
O=C1CSC(/C=C/c2ccccc2)N1c1nc2cc3sc(N4C(=O)CSC4/C=C/c4ccccc4)nc3cc2s1 (stereo not given)	> 29.8	> 100	> 100	> 100	> 100	> 100	> 100	> 100	> 100	> 100	> 100	> 100	> 100	> 100	> 100
COc1ccc(C2NC(=S)Nc3c2c(=O)oc2c3ccc3ccccc32)cc1 (stereo not given)	> 100	> 100	> 100	> 100	> 100	> 100	> 100	> 100	> 100	> 100	> 100	> 100	> 100	> 100	> 100
Cc1cc2c(c(C=Nc3ccccc3O)c1)OC1(C=C2)Oc2ccccc2C(=O)N1C (stereo not given)	54.5	30.9	37.2	37.5	30.6	50	25.4	48	41	47.5	58.5	47.8	36.4	> 100	57.5
CC(C)C1C(=O)N(c2c(F)c(F)c(F)c(F)c2F)C(=S)N1CCS(=O)c1ccccc1 (stereo not given)	29.9	31.8	35.4	40.8	40.1	32.8	28.2	52	28	30.8	34.4	30.9	27.3	19.2	30.6
COc1ccc(N=NC(=O)NC(Cc2ccccc2)C(=O)O)cc1 (stereo not given)	> 100	> 100	> 100	> 100	> 100	> 100	> 100	> 100	> 100	> 100	> 100	> 100	> 100	> 100	> 100
OC(c1ccc(F)cc1)C(F)(F)c1nc2ccccc2o1 (stereo not given)	> 100	> 100	> 100	> 100	> 100	> 100	> 100	> 100	> 100	> 100	> 100	> 100	> 100	> 100	> 100
CCCCCCCCCCCCCCCCCc1cccc(OCOCCOC)c1C(=O)O	39.7	41.2	37.7	28.6	41	39.2	61.8	34.3	41.6	38.2	33.5	31.6	39.1	50.8	35.9
CC#CC(O)(C(=O)OCCCN(C)C)C1CCCCC1 (stereo not given)	> 100	> 100	> 100	> 100	> 100	> 100	> 100	> 100	> 100	> 100	> 100	> 100	> 100	> 100	> 100
CC(O)(Cc1ccccc1C#N)Cc1ccccc1C#N	> 100	> 100	> 100	> 100	> 100	> 100	> 100	> 100	> 100	> 100	> 100	> 100	> 100	97.7	> 100
O=C1NC(=O)C(F)(n2cc(F)c(=O)[nH]c2=O)C(O)N1 (stereo not given)	> 10	> 10	> 10	> 10	> 10	> 10	> 10	> 10	> 10	> 10	> 10	> 10	> 10	> 10	> 10
O=P12N(CCN1c1ccccc1)CCN2c1ccccc1	> 100	> 100	> 100	> 100	> 100	> 100	> 100	> 100	> 100	> 100	> 100	> 100	> 100	> 100	> 100
NC1=CN(CCCO)C2=N/C(=C\c3ccccc3)C(=O)N12	> 100	> 100	> 100	> 100	> 100	> 100	> 100	> 100	> 100	> 100	> 100	> 100	> 100	> 100	> 100
